For 15 molecules, IC50 results are on record in patent US10538555B2, “Macrocyclic inhibitors of the PD-1/PD-L1 and CD80(B7-1)/PD-L1 protein/protein interactions” (BRISTOL-MYERS SQUIBB COMPANY, priority 2014, dated 2020).

Where a SMILES comes first, the peptide text is derived from it. Bridges are numbered along the chain shown (N, C = ends). [ ]: non-standard residue; d: D form. ξ: configuration not given here. Trp(1-CH2COOH) = N[C@@H](Cc1cn(CC(=O)O)c2ccccc12)C(=O)O; Trp(βS-Me) = C[C@@H](c1c[nH]c2ccccc12)[C@H](N)C(=O)O; Phe(3,4,5-F3) = N[C@@H](Cc1cc(F)c(F)c(F)c1)C(=O)O; NMePhe(4-F) = CN[C@@H](Cc1ccc(F)cc1)C(=O)O; Morpholine(3S-CO) = O=C(O)[C@@H]1COCCN1; Phe(4-F) = N[C@@H](Cc1ccc(F)cc1)C(=O)O; d(cisHyp) = O=C(O)[C@H]1C[C@@H](O)CN1; Bta = N[C@@H](Cc1csc2ccccc12)C(=O)O; NMe3Pal = CN[C@@H](Cc1cccnc1)C(=O)O; NMeY = CN[C@@H](Cc1ccc(O)cc1)C(=O)O; Hyp = O=C(O)[C@@H]1C[C@@H](O)CN1; NMeF = CN[C@@H](Cc1ccccc1)C(=O)O; NMeL = CN[C@@H](CC(C)C)C(=O)O; NMeNle = CCCC[C@H](NC)C(=O)O; Pip = O=C(O)[C@@H]1CCCCN1; dPip = O=C(O)[C@H]1CCCCN1; NMeA = CN[C@@H](C)C(=O)O; Orn = NCCC[C@H](N)C(=O)O; dThz = O=C(O)[C@H]1CSCN1; Dab = NCC[C@H](N)C(=O)O; Abu = CC[C@H](N)C(=O)O; Dap = NC[C@H](N)C(=O)O; ξC = NC(CS)C(=O)O; Sar = CNCC(=O)O

T1 sequence (Q9NZQ7 with tags, fused parts or gaps): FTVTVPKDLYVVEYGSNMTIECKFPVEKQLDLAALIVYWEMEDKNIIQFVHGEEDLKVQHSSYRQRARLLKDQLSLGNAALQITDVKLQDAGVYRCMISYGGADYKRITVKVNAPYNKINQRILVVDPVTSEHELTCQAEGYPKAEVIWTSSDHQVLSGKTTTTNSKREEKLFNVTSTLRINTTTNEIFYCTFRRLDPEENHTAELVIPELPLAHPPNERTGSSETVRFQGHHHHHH

The first assay concerns the target T1, Human PD-L1/PD-1 (Homo sapiens, UniProt Q9NZQ7).
T1 construct: TVMV protease cleavage site (C); made in house; host or cells: HEK293T cells
The experiment in a line: HTRF Human PD-L1/PD-1 binding assay (PD-1-Ig/PD-L1-His). As to conditions: PD-L1-His 10 nM, PD-1-Ig 20 nM; class symbol; read-out: HTRF Human PD-L1/PD-1 Binding Assay IC50 Range. In a few lines:
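Step 1: compound with PD-L1-His (10 nM final), 15 min. Step 2: PD-1-Ig (20 nM final), 15 min. Step 3: Eu-cryptate anti-Ig (1 nM) plus APC anti-His (20 nM), 30 min equilibration. Signal taken as 665 nm/620 nm ratio.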
In the case of `CCCC[C@H]1C(=O)N2C[C@H](O)C[C@@H]2C(=O)N[C@@H](CC(=O)O)C(=O)N[C@@H](C(C)C)C(=O)N(C)[C@@H](Cc2ccccc2)C(=O)N[C@@H](Cc2ccc(O)cc2)C(=O)N2C[C@H](O)C[C@@H]2C(=O)N[C@@H](Cc2c[nH]c3ccccc23)C(=O)N[C@@H](Cc2ccc(O)cc2)C(=O)N[C@@H](CCN)C(=O)N[C@H](C(=O)NCC(N)=O)CSCC(=O)N[C@@H](Cc2cc(F)c(F)c(F)c2)C(=O)N(C)[C@@H](Cc2ccccc2)C(=O)N1C` [Example 9324] ({CH2CO}-[Phe(3,4,5-F3)][NMeF][NMeNle][d(cisHyp)]DV[NMeF]Y[d(cisHyp)]WY[Dab]CG-NH2; thioether N-13), the IC50 was 1 to 9.9 nM.

As to `CCCC[C@H]1C(=O)N2CCC[C@@H]2C(=O)N[C@@H](CC(=O)O)C(=O)N[C@@H](C(C)C)C(=O)N(C)[C@@H](Cc2ccccc2)C(=O)N[C@@H](CCC(=O)O)C(=O)N2CCCC[C@@H]2C(=O)N[C@@H](Cc2c[nH]c3ccccc23)C(=O)N[C@@H](Cc2ccc(O)cc2)C(=O)N[C@@H](CCN)C(=O)N[C@H](C(=O)NCC(N)=O)CSCC(=O)N[C@@H](Cc2cc(F)c(F)c(F)c2)C(=O)N(C)[C@@H](Cc2ccc(F)cc2)C(=O)N1C` [Example 10568] ({CH2CO}-[Phe(3,4,5-F3)][NMePhe(4-F)][NMeNle][dP]DV[NMeF]E[dPip]WY[Dab]CG-NH2; thioether N-13), the IC50 was in the range of 1 to 9.9 nM.

For the molecule `CCCC[C@H]1C(=O)N2CCC[C@@H]2C(=O)N[C@@H](CC(=O)O)C(=O)N[C@@H](C(C)C)C(=O)N(C)[C@@H](CC(C)C)C(=O)N[C@@H](Cc2ccc(O)cc2)C(=O)N2CCCC[C@@H]2C(=O)N[C@@H](Cc2c[nH]c3ccccc23)C(=O)N[C@@H](Cc2ccc(O)cc2)C(=O)N[C@@H](CC(C)C)C(=O)N[C@H](C(=O)NCC(N)=O)CSCC(=O)N[C@@H](Cc2ccc(F)cc2)C(=O)N(C)[C@@H](Cc2ccccc2)C(=O)N1C` [Example 9250] ({CH2CO}-[Phe(4-F)][NMeF][NMeNle][dP]DV[NMeL]Y[dPip]WYLCG-NH2; thioether N-13), the IC50 fell in the range of 1000 to 10000 nM.

As to `CCCC[C@H]1C(=O)N(C)[C@@H](CCCC)C(=O)N[C@@H](CCC(=O)O)C(=O)NC(C(=O)NCC(N)=O)CSCC(=O)N[C@@H](Cc2ccc(O)cc2)C(=O)N(C)[C@@H](C)C(=O)N[C@@H](CC(N)=O)C(=O)N2CCC[C@H]2C(=O)N[C@@H](CC(N)=O)C(=O)N[C@@H](CC(C)C)C(=O)N2CCC[C@H]2C(=O)N[C@@H](Cc2c[nH]c3ccccc23)C(=O)N[C@@H](CO)C(=O)N[C@@H](Cc2c[nH]c3ccccc23)C(=O)N1C` (stereo partly drawn) [Example 9168] ({CH2CO}-Y[NMeA]NPNLPWSW[NMeNle][NMeNle]E[ξC]G-NH2; thioether N-14), the IC50 was in the range of 1 to 9.9 nM.

With `CCCC[C@H]1C(=O)N2CSC[C@@H]2C(=O)N[C@@H](CC(=O)O)C(=O)N[C@@H](C(C)C)C(=O)N(C)[C@@H](Cc2ccccc2)C(=O)N[C@@H](Cc2ccc(O)cc2)C(=O)N2CCC[C@@H]2C(=O)N[C@@H](Cc2c[nH]c3ccccc23)C(=O)N[C@@H](Cc2ccc(O)cc2)C(=O)N[C@@H](CC(C)C)C(=O)N[C@H](C(=O)NCC(N)=O)CSCC(=O)N[C@@H](Cc2cc(F)c(F)c(F)c2)C(=O)N(C)[C@@H](Cc2ccccc2)C(=O)N1C` [Example 10093] ({CH2CO}-[Phe(3,4,5-F3)][NMeF][NMeNle][dThz]DV[NMeF]Y[dP]WYLCG-NH2; thioether N-13), the IC50 fell in the range of 1 to 9.9 nM.

Consider `CCCC[C@H]1C(=O)N(C)[C@@H](CCCC)C(=O)N[C@@H](CCC(=O)O)C(=O)N[C@H](C(=O)NCC(N)=O)CSCC(=O)N[C@@H](Cc2ccc(O)cc2)C(=O)N(C)[C@@H](C)C(=O)N[C@@H](CC(=O)O)C(=O)N2CCC[C@H]2C(=O)N[C@@H](CN)C(=O)N[C@@H](CCC(=O)O)C(=O)N2C[C@H](O)C[C@H]2C(=O)N[C@@H](Cc2c[nH]c3ccccc23)C(=O)N[C@@H](CCN)C(=O)N[C@@H](Cc2c[nH]c3ccccc23)C(=O)N1C` [Example 5224] ({CH2CO}-Y[NMeA]DP[Dap]E[Hyp]W[Dab]W[NMeNle][NMeNle]ECG-NH2; thioether N-14), for which the IC50 lay in the range of 1 to 9.9 nM.

For `CCCC[C@H]1C(=O)N(C)CC(=O)N[C@@H](CC(N)=O)C(=O)N[C@@H](C(C)C)C(=O)N(C)[C@@H](Cc2ccccc2)C(=O)N[C@@H](Cc2ccc(O)cc2)C(=O)N(C)CC(=O)N[C@@H](Cc2c[nH]c3ccccc23)C(=O)N[C@@H](Cc2ccc(O)cc2)C(=O)N[C@@H](CCCN)C(=O)N[C@H](C(=O)NCC(N)=O)CSCC(=O)N[C@@H](Cc2ccccc2)C(=O)N(C)[C@@H](Cc2cccnc2)C(=O)N1C` [Example 3614] ({CH2CO}-F[NMe3Pal][NMeNle][Sar]NV[NMeF]Y[Sar]WY[Orn]CG-NH2; thioether N-13), the IC50 was in the range of 10 to 99.9 nM.

Take `CCCC[C@H]1C(=O)N2CCC[C@@H]2C(=O)N[C@@H](CC(=O)O)C(=O)N[C@@H](C(C)C)C(=O)N(C)[C@@H](Cc2ccccc2)C(=O)N[C@@H](CCC(=O)O)C(=O)N2C[C@H](O)C[C@@H]2C(=O)N[C@@H](Cc2c[nH]c3ccccc23)C(=O)N[C@@H](Cc2ccc(O)cc2)C(=O)N[C@@H](CCCN)C(=O)N[C@H](C(=O)NCC(N)=O)CSCC(=O)N[C@@H](Cc2cc(F)c(F)c(F)c2)C(=O)N(C)[C@@H](Cc2ccc(O)cc2)C(=O)N1C` [Example 10632] ({CH2CO}-[Phe(3,4,5-F3)][NMeY][NMeNle][dP]DV[NMeF]E[d(cisHyp)]WY[Orn]CG-NH2; thioether N-13): the IC50 was 1 to 9.9 nM.

`CCCC[C@H]1C(=O)N2CCC[C@@H]2C(=O)N[C@@H](CO)C(=O)N[C@@H](CC)C(=O)N(C)[C@@H](Cc2ccccc2)C(=O)N[C@@H](Cc2ccc(O)cc2)C(=O)N(C)CC(=O)N[C@@H](Cc2c[nH]c3ccccc23)C(=O)N[C@@H](Cc2ccc(O)cc2)C(=O)N[C@@H](CC(C)C)C(=O)N[C@H](C(=O)NCC(N)=O)CSCC(=O)N[C@@H](Cc2ccccc2)C(=O)N(C)[C@@H](Cc2ccccc2)C(=O)N1C` [Example 10058] ({CH2CO}-F[NMeF][NMeNle][dP]S[Abu][NMeF]Y[Sar]WYLCG-NH2; thioether N-13): the IC50 fell in the range of 10 to 99.9 nM.

As to `CCCC[C@H]1C(=O)N(C)[C@@H](CCCC)C(=O)N[C@@H](CN)C(=O)N[C@H](C(=O)NCC(N)=O)CSCC(=O)N[C@@H](Cc2ccc(O)cc2)C(=O)N(C)[C@@H](C)C(=O)N[C@@H](CC(=O)O)C(=O)N2CCC[C@H]2C(=O)N[C@@H](CN)C(=O)N[C@@H](CC(C)C)C(=O)N2C[C@H](O)C[C@H]2C(=O)N[C@@H](Cc2c[nH]c3ccccc23)C(=O)N[C@@H](CO)C(=O)N[C@@H](Cc2cn(CC(=O)O)c3ccccc23)C(=O)N1C` [Example 5227] ({CH2CO}-Y[NMeA]DP[Dap]L[Hyp]WS[Trp(1-CH2COOH)][NMeNle][NMeNle][Dap]CG-NH2; thioether N-14), the IC50 was in the range of 1 to 9.9 nM.

On to `CCCC[C@H]1C(=O)N[C@@H](CC(N)=O)C(=O)N2CCC[C@H]2C(=O)N[C@@H](Cc2c[nH]cn2)C(=O)N[C@@H](CCC(=O)O)C(=O)N2C[C@H](O)C[C@H]2C(=O)N[C@@H]([C@@H](C)c2c[nH]c3ccccc23)C(=O)N[C@@H](CCN)C(=O)N[C@@H](Cc2c[nH]c3ccccc23)C(=O)N(C)[C@@H](C)C(=O)N(C)[C@@H](C)C(=O)N[C@@H](CC(C)C)C(=O)N[C@H](C(=O)NCC(N)=O)CSCC(=O)N[C@@H](Cc2ccc(O)cc2)C(=O)N1C` [Example 10540] ({CH2CO}-Y[NMeNle]NPHE[Hyp][Trp(βS-Me)][Dab]W[NMeA][NMeA]LCG-NH2; thioether N-14), for which the IC50 is 1000 to 10000 nM.

Turning to `CCCC[C@H]1C(=O)N(C)[C@@H](CCCC)C(=O)N[C@@H](C)C(=O)N[C@H](C(=O)NCC(N)=O)CSCC(=O)N[C@@H](Cc2ccc(O)cc2)C(=O)N2CCOC[C@H]2C(=O)N[C@@H](CC(=O)O)C(=O)N2CCC[C@H]2C(=O)N[C@@H](Cc2cnc[nH]2)C(=O)N[C@@H](CCC(N)=O)C(=O)N2C[C@H](O)C[C@H]2C(=O)N[C@@H](Cc2c[nH]c3ccccc23)C(=O)N[C@@H](CO)C(=O)N[C@@H](Cc2c[nH]c3ccccc23)C(=O)N1C` [Example 1514] ({CH2CO}-Y[Morpholine(3S-CO)]DPHQ[Hyp]WSW[NMeNle][NMeNle]ACG-NH2; thioether N-14), the IC50 is 1 to 9.9 nM.

For `CCCC[C@H]1C(=O)N(C)[C@@H](CCCC)C(=O)N[C@@H](C)C(=O)NC(C(=O)NCC(N)=O)CSCC(=O)N[C@@H](Cc2ccc(O)cc2)C(=O)N(C)[C@@H](C)C(=O)N[C@@H](CC(N)=O)C(=O)N2CCC[C@H]2C(=O)N[C@@H](CC(N)=O)C(=O)N[C@@H](CC(C)C)C(=O)N2CCC[C@H]2C(=O)N[C@@H](Cc2c[nH]c3ccccc23)C(=O)N[C@@H](CO)C(=O)N[C@@H](Cc2c[nH]c3ccccc23)C(=O)N1C` (stereo partly drawn) [Example 9132] ({CH2CO}-Y[NMeA]NPNLPWSW[NMeNle][NMeNle]A[ξC]G-NH2; thioether N-14), the IC50 lay within 10 to 99.9 nM.

With `CCCC[C@H]1C(=O)N(C)[C@@H](CCCC)C(=O)N[C@@H](C)C(=O)N[C@H](C(=O)NCC(N)=O)CSCC(=O)N[C@@H](Cc2ccc(O)cc2)C(=O)N2CCCC[C@H]2C(=O)N[C@@H](CC(=O)O)C(=O)N2CCC[C@H]2C(=O)N[C@@H](Cc2cnc[nH]2)C(=O)N[C@@H](CCC(N)=O)C(=O)N2C[C@H](O)C[C@H]2C(=O)N[C@@H](Cc2c[nH]c3ccccc23)C(=O)N[C@@H](CO)C(=O)N[C@@H](Cc2csc3ccccc23)C(=O)N1C` [Example 1508] ({CH2CO}-Y[Pip]DPHQ[Hyp]WS[Bta][NMeNle][NMeNle]ACG-NH2; thioether N-14), the IC50 lay in the range of 1 to 9.9 nM.

The assay is the same for the next values; noted with them: PD-L1-His 10 nM, PD-1-Ig 20 nM; read-out: HTRF Human PD-L1/PD-1 Binding Assay IC50.
In the case of `CCCC[C@H]1C(=O)N2C[C@H](O)C[C@@H]2C(=O)N[C@@H](CC(=O)O)C(=O)N[C@@H](C(C)C)C(=O)N(C)[C@@H](Cc2ccccc2)C(=O)N[C@@H](CC(N)=O)C(=O)N2C[C@H](O)C[C@@H]2C(=O)N[C@@H](Cc2c[nH]c3ccccc23)C(=O)N[C@@H](Cc2ccc(O)cc2)C(=O)N[C@@H](CCCN)C(=O)N[C@H](C(=O)NCC(N)=O)CSCC(=O)N[C@@H](Cc2ccc(F)c(F)c2)C(=O)N(C)[C@@H](Cc2ccccc2)C(=O)N1C` [Example 9304], the IC50 worked out at 11.7 nM.
